Test results as given in PubChem BioAssay AID248 (DTP/NCI, 2004).
Inconclusive results and toxic doses are left out.

Test system: L1210 leukemia ip in BDF1 mice, survival T/C
Assay: NCI In Vivo Anticancer Drug Screen. Data for tumor model L1210 Leukemia (intraperitoneal) in B6D2F1 (BDF1) mice
Conditions: endpoint: mean survival time, higher = longer survival
In short: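 Mice bearing the transplanted tumor received compound or vehicle. Survival of the treated group was divided by that of the vehicle-treated control group to give the ratio.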

[1] = dose: 100.0 mg/kg/injection, schedule: Q01DX001 (ip), vehicle: carboxymethylcellulose (CMC)
[2] = dose: 200.0 mg/kg/injection, schedule: Q01DX001 (ip), vehicle: carboxymethylcellulose (CMC)
[3] = dose: 100.0 mg/kg/injection, schedule: Q04DX002 (ip), vehicle: other
[4] = dose: 200.0 mg/kg/injection, schedule: Q04DX002 (ip), vehicle: other
[5] = dose: 400.0 mg/kg/injection, schedule: Q04DX002 (ip), vehicle: other
[6] = dose: 100.0 mg/kg/injection, schedule: Q04DX002 (ip), vehicle: Klucel (hydroxypropylcellulose) (HPC)
[7] = dose: 200.0 mg/kg/injection, schedule: Q04DX002 (ip), vehicle: Klucel (hydroxypropylcellulose) (HPC)
[8] = dose: 400.0 mg/kg/injection, schedule: Q04DX002 (ip), vehicle: Klucel (hydroxypropylcellulose) (HPC)
[9] = dose: 200.0 mg/kg/injection, schedule: Q01DX001 (ip), vehicle: saline
[10] = dose: 400.0 mg/kg/injection, schedule: Q01DX001 (ip), vehicle: saline
[11] = dose: 100.0 mg/kg/injection, schedule: Q01DX001 (ip), vehicle: saline
[12] = dose: 100.0 mg/kg/injection, schedule: Q04DX003 (ip), vehicle: saline
[13] = dose: 200.0 mg/kg/injection, schedule: Q04DX003 (ip), vehicle: saline
[14] = dose: 25.0 mg/kg/injection, schedule: Q01DX009 (ip), vehicle: Klucel (hydroxypropylcellulose) (HPC)
[15] = dose: 50.0 mg/kg/injection, schedule: Q01DX009 (ip), vehicle: Klucel (hydroxypropylcellulose) (HPC)
[16] = dose: 100.0 mg/kg/injection, schedule: Q04DX003 (ip), vehicle: Klucel (hydroxypropylcellulose) (HPC)
[17] = dose: 100.0 mg/kg/injection, schedule: Q01DX009 (ip), vehicle: Klucel (hydroxypropylcellulose) (HPC)
[18] = dose: 200.0 mg/kg/injection, schedule: Q04DX003 (ip), vehicle: Klucel (hydroxypropylcellulose) (HPC)
[19] = dose: 400.0 mg/kg/injection, schedule: Q04DX003 (ip), vehicle: Klucel (hydroxypropylcellulose) (HPC)
[20] = dose: 100.0 mg/kg/injection, schedule: Q04DX003 (ip), vehicle: saline with Tween-80
[21] = dose: 200.0 mg/kg/injection, schedule: Q04DX003 (ip), vehicle: saline with Tween-80

For `CCOC(=O)C(C)N(c1ccccc1)S(=O)(=O)c1ccc(C)cc1` (configuration not stated), the T/C [1] was 103 % of control, the T/C [2] was 110 % of control and the T/C (dose: 400.0 mg/kg/injection, schedule: Q01DX001 (ip), vehicle: carboxymethylcellulose (CMC)) was 113 % of control.
With `OCC1OC(OC2C(CO)OCC(O)C2O)C(O)C(O)C1O` (configuration not stated) the T/C (dose: 100.0 mg/kg/injection, schedule: Q04DX002 (ip), vehicle: saline with Tween-80) was 100 % of control, the T/C (dose: 200.0 mg/kg/injection, schedule: Q04DX002 (ip), vehicle: saline with Tween-80) was 100 % of control and the T/C (dose: 400.0 mg/kg/injection, schedule: Q04DX002 (ip), vehicle: saline with Tween-80) was 88 % of control.
With `CCCCC(OC(C)=O)C(OC(C)=O)C(COC(C)=O)NC(C)=O` (configuration not stated) the T/C [3] was 103 % of control, the T/C [4] was 97 % of control and the T/C [5] was 110 % of control.
For `CC(C)CCCC(C)C1CCC2C3CC4C(F)(Cl)C45CC4(CCC5(C)C3CCC12C)OCCO4` (configuration not stated), the T/C [3] was 87 % of control, the T/C [4] was 114 % of control and the T/C [5] was 93 % of control.
`CN(CCNC(=O)c1ccc(Cl)cc1)c1ccccc1` was tested, and the T/C [6] was 96 % of control, the T/C [7] was 96 % of control and the T/C [8] was 86 % of control.
For `CCCCC1(C)CCC(=O)O1` (configuration not stated), the T/C (dose: 66.0 mg/kg/injection, schedule: Q01DX001 (ip), vehicle: Klucel (hydroxypropylcellulose) (HPC)) was 101 % of control, the T/C (dose: 100.0 mg/kg/injection, schedule: Q01DX001 (ip), vehicle: Klucel (hydroxypropylcellulose) (HPC)) was 95 % of control and the T/C (dose: 150.0 mg/kg/injection, schedule: Q01DX001 (ip), vehicle: Klucel (hydroxypropylcellulose) (HPC)) was 96 % of control. For the same molecule, the T/C [9] was 113 % of control and the T/C [10] was 91 % of control.
With `CCOC1CCN(CCCn2c3ccccc3c3ccc(C(C)=O)cc32)CC1` the T/C [11] was 95 % of control and the T/C [9] was 92 % of control.
In the case of `CN(Cc1cnc2nc(N)nc(N)c2n1)c1ccc(C(=O)NC(CCC(=O)O)C(=O)O)cc1I` (configuration not stated), the T/C (dose: 2.5 mg/kg/injection, schedule: Q01DX009 (ip), vehicle: sodium bicarbonate) is reported as 176 % of control, the T/C (dose: 5.0 mg/kg/injection, schedule: Q01DX009 (ip), vehicle: sodium bicarbonate) is reported as 175 % of control and the T/C (dose: 10.0 mg/kg/injection, schedule: Q01DX009 (ip), vehicle: sodium bicarbonate) is reported as 104 % of control.
`O=CC(O)C(O)C(O)C(O)CO` (configuration not stated) was tested, and the T/C (dose: 100.0 mg/kg/injection, schedule: Q01DX009 (ip), vehicle: saline) was 98 % of control, the T/C (dose: 200.0 mg/kg/injection, schedule: Q01DX009 (ip), vehicle: saline) was 96 % of control and the T/C (dose: 400.0 mg/kg/injection, schedule: Q01DX009 (ip), vehicle: saline) was 107 % of control. The T/C (dose: 800.0 mg/kg/injection, schedule: Q01DX009 (ip), vehicle: saline) was 98 % of control.
In the case of `CC1(C)C(=O)C(C)(C)C1O`, the T/C (dose: 50.0 mg/kg/injection, schedule: Q04DX003 (ip), vehicle: saline) is reported as 95 % of control, the T/C (dose: 75.0 mg/kg/injection, schedule: Q01DX001 (ip), vehicle: acetone) is reported as 106 % of control and the T/C [11] is reported as 97 % of control. The T/C [12] was 93 % of control, the T/C (dose: 150.0 mg/kg/injection, schedule: Q01DX001 (ip), vehicle: acetone) was 104 % of control and the T/C [9] was 111 % of control. The T/C [13] was 87 % of control and the T/C (dose: 300.0 mg/kg/injection, schedule: Q01DX001 (ip), vehicle: acetone) was 106 % of control.
For `O=c1[nH]cnc2c1[nH]c(=S)n2C1OC(CO)C(O)C1O` (configuration not stated), the T/C [11] was 108 % of control, the T/C [9] was 96 % of control and the T/C [10] was 100 % of control.
In the case of `CCCCCCC(O)/C=C/c1ccc(Cl)cc1` (configuration not stated), the T/C (dose: 100.0 mg/kg/injection, schedule: Q01DX009 (ip), vehicle: saline with Tween-80) is reported as 94 % of control and the T/C (dose: 200.0 mg/kg/injection, schedule: Q01DX009 (ip), vehicle: saline with Tween-80) is reported as 91 % of control.
With `CC(=O)C(C#N)c1ccccc1` (configuration not stated) the T/C [14] was 98 % of control, the T/C (dose: 25.0 mg/kg/injection, schedule: Q04DX003 (ip), vehicle: Klucel (hydroxypropylcellulose) (HPC)) was 100 % of control and the T/C [15] was 96 % of control. The T/C (dose: 50.0 mg/kg/injection, schedule: Q04DX003 (ip), vehicle: Klucel (hydroxypropylcellulose) (HPC)) was 100 % of control and the T/C [16] was 97 % of control.
`O=S1(=O)N2CN3CCN(C2)CN1C3` was tested, and the T/C [17] was 105 % of control, the T/C [16] was 95 % of control and the T/C (dose: 200.0 mg/kg/injection, schedule: Q01DX009 (ip), vehicle: Klucel (hydroxypropylcellulose) (HPC)) was 115 % of control. For the same molecule, the T/C [18] was 103 % of control, the T/C (dose: 400.0 mg/kg/injection, schedule: Q01DX009 (ip), vehicle: Klucel (hydroxypropylcellulose) (HPC)) was 98 % of control and the T/C [19] was 98 % of control.
`CC(=O)Nc1ccc(S(=O)(=O)C2=CC(=O)c3ccccc3C2=O)cc1` was tested, and the T/C [11] was 95 % of control.
For `O=C1C=C(Nc2ccc(N(CCCl)CCCl)cc2)c2ccccc2C1=O`, the T/C [16] was 107 % of control, the T/C [18] was 114 % of control and the T/C [19] was 95 % of control.
`CNc1ccccc1C(=O)N/N=C/c1cccc([N+](=O)[O-])c1` was tested, and the T/C [6] was 93 % of control, the T/C [7] was 96 % of control and the T/C [8] was 86 % of control.
In the case of `CN1CCC(O)(c2ccccc2)C(/C(=N/O)c2ccccc2)C1` (configuration not stated), the T/C [12] is reported as 97 % of control and the T/C [13] is reported as 90 % of control.
In the case of `N#CC12C(=O)C3C4C=CC(C4)C3C(=O)C1(C#N)C1C=CC2C1` (configuration not stated), the T/C [20] is reported as 94 % of control and the T/C [21] is reported as 92 % of control.
In the case of `c1ccc2c(c1)ccc1[s+]cccc12`, the T/C (dose: 100.0 mg/kg/injection, schedule: Q04DX003 (ip), vehicle: acetone) is reported as 100 % of control and the T/C (dose: 200.0 mg/kg/injection, schedule: Q04DX003 (ip), vehicle: acetone) is reported as 105 % of control.
In the case of `O=C1OC(c2ccc(Cl)cc2)=N/C1=C\c1c(Cl)cccc1Cl`, the T/C (dose: 100.0 mg/kg/injection, schedule: Q04DX002 (ip), vehicle: saline) is reported as 93 % of control, the T/C (dose: 200.0 mg/kg/injection, schedule: Q04DX002 (ip), vehicle: saline) is reported as 107 % of control and the T/C (dose: 400.0 mg/kg/injection, schedule: Q04DX002 (ip), vehicle: saline) is reported as 118 % of control.
For `O/N=C1/CCCC/C1=C/c1ccccc1`, the T/C [20] was 101 % of control, the T/C [21] was 97 % of control and the T/C (dose: 400.0 mg/kg/injection, schedule: Q04DX003 (ip), vehicle: saline with Tween-80) was 100 % of control.
With `CC(C)C1CCC(/C=C(\C#N)C2CCC([N+](=O)[O-])CC2)CC1` (configuration not stated) the T/C [3] was 95 % of control, the T/C [4] was 95 % of control and the T/C [5] was 92 % of control.
For `COc1ccc(OC)c2c(=O)cc[nH]c12`, the T/C [1] was 103 % of control and the T/C [2] was 94 % of control.
`Cc1nc2c(nc1C)C(=O)C=CC2=O` was tested, and the T/C (dose: 5.0 mg/kg/injection, schedule: Q01DX001 (ip), vehicle: carboxymethylcellulose (CMC)) was 100 % of control, the T/C (dose: 10.0 mg/kg/injection, schedule: Q01DX001 (ip), vehicle: carboxymethylcellulose (CMC)) was 96 % of control and the T/C (dose: 20.0 mg/kg/injection, schedule: Q01DX001 (ip), vehicle: carboxymethylcellulose (CMC)) was 94 % of control.
For `Cc1cc(=O)oc2cc(OC(=O)Nc3cccc(Cl)c3Cl)ccc12`, the T/C [14] was 89 % of control, the T/C [15] was 93 % of control and the T/C [17] was 98 % of control.
For `Cc1ccc(C(=O)C=Nc2ccccc2[N+](=O)[O-])cc1`, the T/C (dose: 12.5 mg/kg/injection, schedule: Q04DX002 (ip), vehicle: Klucel (hydroxypropylcellulose) (HPC)) was 105 % of control, the T/C (dose: 25.0 mg/kg/injection, schedule: Q04DX002 (ip), vehicle: Klucel (hydroxypropylcellulose) (HPC)) was 108 % of control and the T/C (dose: 50.0 mg/kg/injection, schedule: Q04DX002 (ip), vehicle: Klucel (hydroxypropylcellulose) (HPC)) was 123 % of control.
In the case of `NC(=O)c1ccc[n+](Cc2c(Cl)cccc2Cl)c1`, the T/C (dose: 1.56 mg/kg/injection, schedule: Q01DX009 (ip), vehicle: saline) is reported as 111 % of control, the T/C (dose: 3.12 mg/kg/injection, schedule: Q01DX009 (ip), vehicle: saline) is reported as 122 % of control and the T/C (dose: 6.25 mg/kg/injection, schedule: Q01DX009 (ip), vehicle: saline) is reported as 122 % of control.
For `CSc1ncc(CO)c(NC(C)(C)C)n1`, the T/C [12] was 96 % of control, the T/C [13] was 100 % of control and the T/C (dose: 400.0 mg/kg/injection, schedule: Q04DX003 (ip), vehicle: saline) was 100 % of control.
